# Assay results as given in patent US12084421B2, “Quinoline-based proteasome inhibitors and uses thereof” (Board of Trustees of Michigan State University, priority 2017, dated 2024).
# pIC50: −log10 of the molar value.
# What was measured:
# [1] = target: purified human 20S proteasome (CT-L activity) (Homo sapiens, UniProt P28074); assay: Proteasomal CT-L activity measurement with Suc-LLVY-AMC; assay type: biochemical; settings: for pIC50: Suc-LLVY-AMC substrate, 37° C., 30 min
# Method: (§1) Proteasomal activity measurement: The fluorogenic substrates Suc-LLVY-AMC, Z-ARR-AMC, and Z-LLE-AMC were used to measure CT-L, T-L and casp-L proteasome activities, respectively. Assays were carried out in black, clear bottom 96 well plates in a 200 μL reaction volume containing 1 nM of purified human 20S proteasome in 50 mM Tris-HCL pH 7.5 and 0.03% SDS containing 50 IM fluorogenic substrate at 37° C. The rate of cleavage of fluorogenic peptide substrates was determined by monitoring the fluorescence of released aminomethylcoumarin using a SpectraMax M5e multiwall plate reader at an excitation wavelength of 380 nm and emission wavelength of 460 nm. Fluo-rescence was measured every minute over a period of 30 minutes and the maximum increase in fluorescence per minute was used to calculate specific activities of each sample.
# Compounds were screened in vitro using purified human 20S proteasome and the fluorogenic peptide substrate, Suc-LLVY-AMC, as the substrate for CT-L activity as described herein.
# The mechanism by which quinoline 7 inhibits the proteasome was investigated using Michaelis-Menton analysis to determine of KM and Vmax and then further illustrated using a Lineweaver-Burk double reciprocal plot of the kinetic data. Kinetic analysis of CT-L activity of purified 20S particles indicate that when the substrate (Suc-LLVY-AMC) concentration was increased incrementally and measurements were taken at five different concentrations of compound 7 or vehicle, the Vmax of the CT-L activity decreases and the KM increases, with the increasing concentration of […].
# [2] = Kinetic solubility assay; assay type: physicochemical; settings: phosphate buffered saline with 1% DMSO, aqueous buffer, kinetic from dmso stock; estimated kinetic solubility, phosphate buffered saline pH 7.4, 1% DMSO, 2 hours at 37° C., absorbance 620 nm
# Method: Seven three-fold dilutions from 300 μM were prepared in phosphate buffered saline (ph=7.4) and 1% DMSO. Each concentration for each compound was tested three times (n=3). The compounds were incubated for 2 hours at 37° C. and the absorbance at 620 nm was evaluated for each dilution.
# [3] = Microsome (S9 fraction) stability assay; assay type: in vitro ADME; settings: mouse S9 fraction 0.25 mg/mL, 3 μM compound, NADPH, LC-MS/MS
# [4] = target: purified human 20S proteasome (casp-L activity) (Homo sapiens, UniProt P28072); assay: Proteasomal casp-L activity measurement with Z-LLE-AMC; assay type: biochemical; settings: Z-LLE-AMC substrate
# Method: as §1
# Quinoline 7 was subsequently evaluated for its inhibition of the proteasome's tryptic (b2)-like and caspase (b1)-like activity in vitro using purified human 20S proteasome and the following fluorogenic peptide as substrates: Boc-LRR-AMC (substrate for T-L activity) and Z-LLE-AMC (substrate for casp-L activity).
# [5] = system: HeLa NF-κB-luc cells; assay: NF-κB-luc reporter assay, TNF-α stimulated; assay type: cell-based; settings: Homo sapiens, 30 min pretreatment, TNF-α 25 ng/mL, 8 h, Steady-Glo luciferase, read-out: IC50, NF-κB mediated gene transcription
# Method: NF-κB-luc reporter assay: HeLa NF-κB-luc cells (5.0×10^5 cells/mL) were seeded into a 96-well white opaque plate using DMEM medium supplemented with 5% fetal bovine serum, 500 U/mL penicillin, 100 μg/mL streptomycin, 1 mM sodium pyruvate, 0.2 mM L-glutamine, and 100 Ig/mL hygromycin B. After 24 h the cell culture medium was replaced with DMEM medium supplemented with 100 U/mL penicillin and 100 Ig/mL streptomycin. Cell cultures were pretreated with vehicle (1% DMSO), 50 IMpeptide aldehyde MG-132 (positive control) or quinoline (final concentrations were 50, 25, 12.5, 6.25, 3.13 and 1.56 IM) for 30 min at 37° C. in 5% CO2. TNF-α was added to a final concentration of 25 ng/mL and the samples were further incubated for 8 h at 37° C. in 5% CO2. […] The luminescence of each well was measured using a Veritas microplate luminometer. […] The data was analyzed using GraphPad Prism 4.0. The data was normalized to TNF-α activation and the EC50 values were calculated using the equation for the sigmodial curve for variable slope.
# In order to evaluate whether the inhibition of proteasome activity translated in cell culture, we evaluated compound 7 for inhibition of NE-KB regulation. […] In order to determine if quinoline 7 affects NE-KB mediated gene transcription, we evaluated quinoline 7 in HeLa NE-KB-luc cells. […]
SMILES,pIC50 [1],solubility at 2 h [2],Compound remaining after 30 min in mouse S9 [3],other results
"CCc1cc2cc(N(C)C)ccc2nc1CC [Compound 33, 2,3-Diethyl-N,N-dimethylquinoline]",4.73,,,
"CN(C)c1ccc2ncc(C3CCCCC3)cc2c1 [Compound 28, 3-Cyclohexyl-6-(N,N-dimethylamino)quinoline]",5.26,,,
"COc1cc2nc(C)c(C3=CCCCC3)cc2c(OC)c1OC [Compound 27, 3-Cyclohexenyl-5,6,7-trimethoxy-2-methylquinoline]",4.81,,,
"Cc1cc(C)c2cc(C3=CCCCC3)cnc2c1 [Compound 9, 3-Cyclohexenyl-5,7-dimethylquinoline]",4.86,,,
Cc1cc(C)c2cc(C3CCCCC3)c(C)nc2c1 [Compound 11],5.09,129 µM,100%,
"CN(C)c1ccc2ncc(C3=CCCCC3)cc2c1 [Compound 21, 3-Cyclohexenyl-6-(N,N-dimethylamino)quinoline]",5.20,,,
"CCc1nc2cc(C)cc(C)c2cc1C1=CCCCC1 [Compound 8, 2-Ethyl-3-cyclohexenyl-5,7-dimethylquinoline]",4.70,,,
"CCc1nc2ccc(N(C)C)cc2cc1C1=CCCCC1 [Compound 23, 3-Cyclohexenyl-2-ethyl-6(N,N-dimethylamino)quinoline]",5.25,27.4 µM,5%,
"Cc1cc(C)c2cc(C3=CCCCC3)c(C)nc2c1 [Compound 7, 3-cyclohexenyl-2,5,7-trimethylquinoline]",4.84,38.1 µM,18%,"Mechanism of inhibition (Michaelis-Menton / Lineweaver-Burk analysis) ([1]; Suc-LLVY-AMC varied, five concentrations of compound, Vmax decreases, KM increases): mixed-type inhibition; pIC50 [4]: 4.75; pIC50 [5]: 4.92"
"Cc1nc2ccc(N(C)C)cc2cc1C1CCCCC1 [Compound 29, 3-Cyclohexyl-2-methyl-6-(N,N-dimethylamino) quinoline]",5.17,138 µM,4%,

# Now from value to compound, other results behind:
pIC50 [1],solubility at 2 h [2],Compound remaining after 30 min in mouse S9 [3],SMILES,other results
5.21,,,"Cc1nc2ccc(N(C)C)cc2cc1C1=CCCCC1 [Compound 22, 3-Cyclohexenyl-2-methyl-6-(N,N-dimethylamino) quinoline]",
4.82,,,"Cc1cc(C)c2cc(-c3ccccc3)c(C)nc2c1 [Compound 6, 2,5,7-trimethyl-3-phenylquinoline]",
4.72,,,"Cc1ccc2nc(C)c(-c3ccccc3)cc2c1 [Compound 5, 2,6-Dimethyl-3-phenylquinoline]",
5.27,,,"Cc1nc2ccc(N3CCCCC3)cc2cc1C1=CCCCC1 [Compound 25, 3-Cyclohexenyl-2-methyl-6-piperidinylquinoline]",
5.07,,,"Cc1ccc2nc(C)c(C3=CCCCC3)cc2c1 [Compound 19, 3-Cyclohexenyl-2,6-dimethylquinoline]",
5.00,,,"Cc1nc2ccc(Br)cc2cc1C1=CCCCC1 [Compound 16, 6-Bromo-3-cyclohexenyl-2-methylquinoline]",
4.67,,,"CCCCc1ccc2nc(C)c(-c3ccccc3)cc2c1 [Compound 36, 6-Butyl-2-methyl-3-phenylquinoline]",
5.11,11.7 µM,6%,"Cc1nc2ccc(C(C)C)cc2cc1C1=CCCCC1 [Compound 30, 3-Cyclohexenyl-6-isopropyl-2-methylquinoline]",
4.63,,,"Cc1cc(C)c2cc(-c3ccccc3)cnc2c1 [Compound 4, 5,7-Dimethyl-3-phenylquinoline]",
5.12,14.5 µM,12%,"CCCCc1ccc2nc(C)c(C3=CCCCC3)cc2c1 [Compound 20, 6-Butyl-3-cyclohexenyl-2-methylquinoline]",
5.00,121 µM,>100%,"Cc1nc2ccc(N(C)C)cc2cc1-c1ccccc1 [Compound 34, 2-methyl-3-phenyl-6-(N,N-dimethylamino) quinoline]",
